The text below walks through data of article PMC11465619 (ACS Omega, 2024).

For orientation: IC50 means the midpoint of a concentration-inhibition curve.

Assay [1] has as its target T1, electric eel acetylcholinesterase (AChE, Type–VI-S, EC 3.1.1.7) (Electrophorus electricus, UniProt O42275).
T1 construct: purchased Type–VI-S
Kind of assay: biochemical. As to conditions: for IC50: mean ± SEM of three parallel measurements. As for the experimental part:
(§1) The electric eel acetylcholinesterase (AChE, Type–VI-S, EC 3.1.1.7, 425.84 U/mg) and horse reddish butyrylcholinesterase (BChE, EC 3.1.1.8, 11.4 U/mg) were used to determine the anticholinesterase activity. […] After incubation for 15 min at 25 °C, 20 μL 0.5 mM DTNB (5,50-dithiobis(2-nitrobenzoic acid)) and 20 μL acetylthiocholine iodide (0.71 mM) or butyryl-thiocholine chloride (0.2 mM) were added. Then, the absorbance was measured at 412 nm.
(§2) Lineweaver–Burk plots were drawn from the data obtained as a result of the experimental study.[24]

Assay [2] deals with horse reddish butyrylcholinesterase (BChE, EC 3.1.1.8) (Equus caballus, UniProt P81908). The assay can be described thus: biochemical. The following applies: for IC50: mean ± SEM of three parallel measurements. As for the experimental part:
as §1, §2

T1 sequence (O42275 24-633): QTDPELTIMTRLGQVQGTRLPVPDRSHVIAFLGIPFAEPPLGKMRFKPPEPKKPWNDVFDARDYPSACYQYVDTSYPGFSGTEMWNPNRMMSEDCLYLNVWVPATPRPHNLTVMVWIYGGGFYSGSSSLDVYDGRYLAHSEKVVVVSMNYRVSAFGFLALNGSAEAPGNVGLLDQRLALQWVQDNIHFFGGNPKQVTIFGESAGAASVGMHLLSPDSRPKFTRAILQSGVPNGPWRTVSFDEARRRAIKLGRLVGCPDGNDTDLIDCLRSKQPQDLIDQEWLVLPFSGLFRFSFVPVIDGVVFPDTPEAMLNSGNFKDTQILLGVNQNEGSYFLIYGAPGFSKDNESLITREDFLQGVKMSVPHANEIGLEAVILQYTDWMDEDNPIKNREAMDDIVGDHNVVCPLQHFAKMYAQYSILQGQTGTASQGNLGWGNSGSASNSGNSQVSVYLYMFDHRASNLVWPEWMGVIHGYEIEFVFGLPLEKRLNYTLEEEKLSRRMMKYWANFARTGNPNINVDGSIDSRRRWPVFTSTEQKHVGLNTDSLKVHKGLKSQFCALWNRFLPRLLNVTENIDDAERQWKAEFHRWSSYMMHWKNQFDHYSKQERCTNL
Chain of horse reddish butyrylcholinesterase (BChE, EC 3.1.1.8) (P81908 whole entry): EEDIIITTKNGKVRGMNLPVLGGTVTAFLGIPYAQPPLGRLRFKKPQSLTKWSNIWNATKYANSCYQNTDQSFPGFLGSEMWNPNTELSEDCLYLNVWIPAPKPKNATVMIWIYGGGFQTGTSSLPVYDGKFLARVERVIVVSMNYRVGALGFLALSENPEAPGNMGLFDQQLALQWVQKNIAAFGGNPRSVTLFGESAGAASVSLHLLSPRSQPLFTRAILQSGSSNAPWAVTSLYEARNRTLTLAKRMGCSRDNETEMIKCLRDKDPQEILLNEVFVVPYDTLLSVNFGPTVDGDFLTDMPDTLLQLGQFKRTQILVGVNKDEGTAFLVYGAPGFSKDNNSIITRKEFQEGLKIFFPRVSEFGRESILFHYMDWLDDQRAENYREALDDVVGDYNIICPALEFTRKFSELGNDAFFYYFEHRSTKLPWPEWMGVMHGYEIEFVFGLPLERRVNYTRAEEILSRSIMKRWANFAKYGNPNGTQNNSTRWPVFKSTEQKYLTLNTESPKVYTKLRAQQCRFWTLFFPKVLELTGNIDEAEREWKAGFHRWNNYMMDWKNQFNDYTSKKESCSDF

With `O=S(=O)(N/N=C/c1ccccc1O)c1ccccc1OC(F)(F)F` [Compound 5, (E)-N′-(2-Hydroxybenzylidene)-2-(trifluoromethoxy)benzenesulfonohydrazide], the values for the IC50 in assay [1] and in assay [2] were 53.1 ± 0.58 µM and 69 ± 1.06 µM, respectively.
Consider `O=S(=O)(N/N=C/c1ccccc1O)c1cccc(C(F)(F)F)c1` [Compound 3, (E)-N′-(2-Hydroxybenzylidene)-3-(trifluoromethyl)benzenesulfonohydrazide], for which the values for the IC50 in assay [1] and in assay [2] were 104.2 ± 0.56 µM and 119.8 ± 0.17 µM, respectively.
With `O=S(=O)(N/N=C/c1ccccc1O)c1ccc(OC(F)(F)F)cc1` [Compound 7, (E)-N′-(2-Hydroxybenzylidene)-4-(trifluoromethoxy)benzenesulfonohydrazide], the “type of inhibition of AChE (Lineweaver–Burk plots)” value in assay [1] was “competitively”. In addition, the “AChE inhibitory activity relative to the standard galantamine” value in assay [1] (compared with galantamine) is given as “seven times lower”. In addition, the Ki stood at 28.2 ± 2.51 µM in assay [1] (competitive inhibition, read-out: inhibition constant for AChE (Lineweaver–Burk plots)) and 41.7 ± 3.18 µM in assay [2] (competitive inhibition, read-out: inhibition constant for BChE (Lineweaver–Burk plots)). Further, the IC50 in assay [1] was determined as 29.1 ± 0.94 µM; in assay [2] it was 40.3 ± 0.66 µM. Also, in assay [2], the “type of inhibition of BChE (Lineweaver–Burk plots)” value is “competitively”.
Take `O=S(=O)(N/N=C/c1ccccc1O)c1ccc(C(F)(F)F)cc1` [Compound 4, (E)-N′-(2-Hydroxybenzylidene)-4-(trifluoromethyl)benzenesulfonohydrazide]: the IC50 in assay [1] was 68.67 ± 0.43 µM; in assay [2], 75.34 ± 0.18 µM.
On to `O=S(=O)(N/N=C/c1ccccc1O)c1ccccc1C(F)(F)F` [Compound 2, (E)-N′-(2-Hydroxybenzylidene)-2-(trifluoromethyl)benzenesulfonohydrazide], for which the concentration for half-maximal inhibition (IC50) in assay [1] was found to be 91.77 ± 0.33 µM; in assay [2] it was 100.1 ± 0.12 µM.
For `O=S(=O)(N/N=C/c1ccccc1O)c1cccc(OC(F)(F)F)c1` [Compound 6, (E)-N′-(2-Hydroxybenzylidene)-3-(trifluoromethoxy)benzenesulfonohydrazide] the same measures were 80.3 ± 0.91 µM and 86.4 ± 0.14 µM.
For `O=S(=O)(N/N=C/c1ccccc1O)c1ccc(F)cc1` [Compound 1, (E)-4-Fluoro-N′-(2-hydroxybenzylidene)benzenesulfonohydrazide] the same measures were 117.5 ± 0.38 µM and 124.4 ± 0.28 µM.
